Test results from patent US20240246942A1, “KINASE INHIBITORS FOR THE TREATMENT OF NEURODEGENERATIVE DISEASES” (priority 2020, published 2024).

Assays:
Assay in all cases: biochemical
[1] = biological target: T1, panel of 374 wild-type kinases (Homo sapiens, UniProt P20794); conditions: read-out: % Enzyme Activity (relative to DMSO controls), MAK
T1 construct: purchased Reaction Biology Corporation
T1 sequence (P20794 1-623): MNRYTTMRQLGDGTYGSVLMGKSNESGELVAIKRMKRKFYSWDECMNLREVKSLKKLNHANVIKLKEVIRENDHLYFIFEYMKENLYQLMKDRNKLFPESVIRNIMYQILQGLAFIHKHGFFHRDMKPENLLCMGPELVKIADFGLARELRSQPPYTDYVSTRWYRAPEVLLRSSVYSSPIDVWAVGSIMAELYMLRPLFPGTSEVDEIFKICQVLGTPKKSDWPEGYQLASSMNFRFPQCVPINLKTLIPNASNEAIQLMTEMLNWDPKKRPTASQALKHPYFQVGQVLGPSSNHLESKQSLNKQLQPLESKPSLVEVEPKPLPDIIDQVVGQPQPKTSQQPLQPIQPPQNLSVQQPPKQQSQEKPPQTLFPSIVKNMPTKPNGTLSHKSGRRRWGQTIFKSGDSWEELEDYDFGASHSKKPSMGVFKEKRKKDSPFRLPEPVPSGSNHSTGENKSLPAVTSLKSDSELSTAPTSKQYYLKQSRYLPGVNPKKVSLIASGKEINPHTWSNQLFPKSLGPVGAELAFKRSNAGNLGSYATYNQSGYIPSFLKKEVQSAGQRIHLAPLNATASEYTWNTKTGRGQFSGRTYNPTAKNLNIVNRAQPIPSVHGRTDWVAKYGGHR

[2] = biological target: T2, panel of 374 wild-type kinases (Homo sapiens, UniProt Q9UK32); conditions: read-out: % Enzyme Activity (relative to DMSO controls), kinase RSK4
T2 construct: purchased Reaction Biology Corporation

[3] = biological target: T3, panel of 374 wild-type kinases (Homo sapiens, UniProt Q8N5S9); conditions: read-out: % Enzyme Activity (relative to DMSO controls), CAMKK1
T3 construct: purchased Reaction Biology Corporation

[4] = biological target: T4, panel of 374 wild-type kinases (Homo sapiens, UniProt Q9UEW8); conditions: kinase STK39/STLK3, read-out: % Enzyme Activity (relative to DMSO controls)
T4 construct: purchased Reaction Biology Corporation

[5] = biological target: T5, panel of 374 wild-type kinases (Homo sapiens, UniProt Q6VAB6); conditions: read-out: % Enzyme Activity (relative to DMSO controls), KSR2
T5 construct: purchased Reaction Biology Corporation
T5 sequence (Q6VAB6 1-950): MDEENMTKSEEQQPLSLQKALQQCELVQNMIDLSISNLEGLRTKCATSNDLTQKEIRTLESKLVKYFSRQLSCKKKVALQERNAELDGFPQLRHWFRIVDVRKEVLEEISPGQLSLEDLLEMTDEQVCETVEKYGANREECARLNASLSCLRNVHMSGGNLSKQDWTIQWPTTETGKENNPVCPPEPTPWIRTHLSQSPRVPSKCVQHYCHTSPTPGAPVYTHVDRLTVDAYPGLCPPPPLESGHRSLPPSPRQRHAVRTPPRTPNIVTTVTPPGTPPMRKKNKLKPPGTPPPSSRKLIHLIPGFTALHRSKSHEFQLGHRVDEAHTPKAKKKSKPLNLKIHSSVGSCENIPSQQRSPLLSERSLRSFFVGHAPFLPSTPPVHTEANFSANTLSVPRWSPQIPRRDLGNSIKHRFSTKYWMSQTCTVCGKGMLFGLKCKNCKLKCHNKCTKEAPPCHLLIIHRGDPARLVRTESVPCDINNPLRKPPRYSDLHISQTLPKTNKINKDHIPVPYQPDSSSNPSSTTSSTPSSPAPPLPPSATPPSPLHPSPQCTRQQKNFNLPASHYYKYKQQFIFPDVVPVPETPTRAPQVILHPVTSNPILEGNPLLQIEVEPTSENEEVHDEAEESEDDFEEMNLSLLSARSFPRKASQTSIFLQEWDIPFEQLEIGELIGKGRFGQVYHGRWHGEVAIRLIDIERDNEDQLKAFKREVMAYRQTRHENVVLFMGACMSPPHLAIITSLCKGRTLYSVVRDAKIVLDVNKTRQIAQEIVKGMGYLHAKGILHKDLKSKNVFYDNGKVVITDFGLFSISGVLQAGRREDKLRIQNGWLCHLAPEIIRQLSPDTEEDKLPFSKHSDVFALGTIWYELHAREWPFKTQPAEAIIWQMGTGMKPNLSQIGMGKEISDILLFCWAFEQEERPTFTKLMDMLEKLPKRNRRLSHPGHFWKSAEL

[6] = biological target: T6, panel of 374 wild-type kinases (Homo sapiens, UniProt Q86V86); conditions: read-out: % Enzyme Activity (relative to DMSO controls), kinase PIM3
T6 construct: purchased Reaction Biology Corporation

[7] = biological target: T7, panel of 374 wild-type kinases (Homo sapiens, UniProt Q13163); conditions: read-out: % Enzyme Activity (relative to DMSO controls), MEK5
T7 construct: purchased Reaction Biology Corporation
T7 sequence (Q13163 1-448): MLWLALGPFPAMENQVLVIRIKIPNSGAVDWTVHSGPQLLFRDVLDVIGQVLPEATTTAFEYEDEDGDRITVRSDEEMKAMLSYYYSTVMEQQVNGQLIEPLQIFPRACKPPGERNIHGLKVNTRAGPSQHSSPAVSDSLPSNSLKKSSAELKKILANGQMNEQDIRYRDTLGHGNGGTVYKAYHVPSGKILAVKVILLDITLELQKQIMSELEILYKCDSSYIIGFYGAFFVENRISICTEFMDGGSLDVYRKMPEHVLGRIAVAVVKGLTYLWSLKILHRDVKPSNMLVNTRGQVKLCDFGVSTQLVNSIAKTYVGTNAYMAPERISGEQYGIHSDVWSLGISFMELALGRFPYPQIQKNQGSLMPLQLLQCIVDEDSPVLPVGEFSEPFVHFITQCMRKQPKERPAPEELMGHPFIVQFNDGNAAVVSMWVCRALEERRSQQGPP

[8] = biological target: T8, panel of 374 wild-type kinases (Homo sapiens, UniProt P78362); conditions: read-out: % Enzyme Activity (relative to DMSO controls), kinase SRPK2
T8 construct: purchased Reaction Biology Corporation
T8 sequence (P78362 whole entry): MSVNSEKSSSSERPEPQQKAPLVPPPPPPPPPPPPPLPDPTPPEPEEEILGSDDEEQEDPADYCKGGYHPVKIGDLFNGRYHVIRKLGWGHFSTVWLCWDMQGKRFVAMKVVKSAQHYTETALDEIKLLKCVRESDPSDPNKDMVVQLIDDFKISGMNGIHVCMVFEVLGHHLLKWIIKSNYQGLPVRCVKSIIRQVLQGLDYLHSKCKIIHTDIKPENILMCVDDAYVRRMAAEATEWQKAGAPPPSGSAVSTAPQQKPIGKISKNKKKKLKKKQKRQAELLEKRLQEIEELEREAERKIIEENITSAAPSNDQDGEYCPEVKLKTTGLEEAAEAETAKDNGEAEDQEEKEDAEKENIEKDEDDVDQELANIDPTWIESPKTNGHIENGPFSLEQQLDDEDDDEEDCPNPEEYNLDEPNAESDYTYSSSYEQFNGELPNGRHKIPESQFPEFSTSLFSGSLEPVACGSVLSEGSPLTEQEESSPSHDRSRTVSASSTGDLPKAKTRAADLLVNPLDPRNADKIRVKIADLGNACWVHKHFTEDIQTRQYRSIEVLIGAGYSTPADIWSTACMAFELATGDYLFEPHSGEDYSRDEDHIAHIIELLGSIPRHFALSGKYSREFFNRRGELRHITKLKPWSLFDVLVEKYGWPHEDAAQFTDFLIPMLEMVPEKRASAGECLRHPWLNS

T3 sequence (Q8N5S9 whole entry): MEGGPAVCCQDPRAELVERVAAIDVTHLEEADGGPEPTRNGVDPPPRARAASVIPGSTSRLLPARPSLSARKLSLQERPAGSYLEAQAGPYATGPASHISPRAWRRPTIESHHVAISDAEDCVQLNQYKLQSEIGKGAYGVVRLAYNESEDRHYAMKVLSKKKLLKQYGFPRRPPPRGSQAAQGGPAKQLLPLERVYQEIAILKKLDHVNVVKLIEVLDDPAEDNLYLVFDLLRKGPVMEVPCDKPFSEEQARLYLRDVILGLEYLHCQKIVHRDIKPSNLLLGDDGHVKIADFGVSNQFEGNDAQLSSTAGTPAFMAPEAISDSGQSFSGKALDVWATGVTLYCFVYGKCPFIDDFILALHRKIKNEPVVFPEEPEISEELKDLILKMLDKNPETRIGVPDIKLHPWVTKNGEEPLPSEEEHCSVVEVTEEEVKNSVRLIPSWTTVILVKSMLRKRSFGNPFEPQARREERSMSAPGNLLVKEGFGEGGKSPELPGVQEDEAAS
T2 sequence (Q9UK32 whole entry): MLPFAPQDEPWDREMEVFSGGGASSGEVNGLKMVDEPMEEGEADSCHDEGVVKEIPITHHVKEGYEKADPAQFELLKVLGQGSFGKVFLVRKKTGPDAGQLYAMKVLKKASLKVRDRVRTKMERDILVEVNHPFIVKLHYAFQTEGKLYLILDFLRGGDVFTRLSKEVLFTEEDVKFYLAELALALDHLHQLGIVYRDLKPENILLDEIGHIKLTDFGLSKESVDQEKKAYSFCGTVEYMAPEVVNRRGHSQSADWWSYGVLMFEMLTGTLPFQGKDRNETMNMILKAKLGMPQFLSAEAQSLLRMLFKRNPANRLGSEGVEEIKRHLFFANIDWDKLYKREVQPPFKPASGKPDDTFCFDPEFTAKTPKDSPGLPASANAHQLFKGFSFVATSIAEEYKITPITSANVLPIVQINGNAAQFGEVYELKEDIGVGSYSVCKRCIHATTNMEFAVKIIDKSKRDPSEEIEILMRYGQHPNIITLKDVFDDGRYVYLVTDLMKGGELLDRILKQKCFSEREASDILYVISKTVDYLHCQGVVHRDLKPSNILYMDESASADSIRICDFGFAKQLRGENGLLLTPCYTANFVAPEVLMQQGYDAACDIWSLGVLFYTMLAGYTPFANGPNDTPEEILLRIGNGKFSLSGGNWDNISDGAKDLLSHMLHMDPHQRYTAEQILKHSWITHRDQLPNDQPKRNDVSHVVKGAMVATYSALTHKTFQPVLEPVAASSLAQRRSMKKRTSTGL

Row | SMILES | remaining activity at 5 µM [1] [%] | remaining activity at 5 µM [2] [%] | remaining activity at 5 µM [3] [%] | remaining activity at 5 µM [4] [%] | remaining activity at 5 µM [5] [%] | remaining activity at 5 µM [6] [%] | remaining activity at 5 µM [7] [%] | remaining activity at 5 µM [8] [%] | remaining activity at 10 µM ([1]; 10 uM) [%] | remaining activity at 10 µM ([2]; 10 uM) [%] | remaining activity at 10 µM ([3]; 10 uM) [%] | remaining activity at 10 µM ([4]; 10 uM) [%] | remaining activity at 10 µM ([5]; 10 uM) [%] | remaining activity at 10 µM ([6]; 10 uM) [%] | remaining activity at 10 µM ([7]; 10 uM) [%] | remaining activity at 10 µM ([8]; 10 uM) [%]
1 | O=C(Nc1cnn(-c2csc(C(=O)NC3COC3)c2)c1)Nc1c(F)cccc1Cl [Compound 25, 4-(4-(3-(2-chloro-6-fluorophenyl)ureido)-1H-pyrazol-1-yl)-N-(oxetan-3-yl)thiophene-2-carboxamide] | 97.6 | 92.2 | 93.7 | 82.3 | 92.7 | 73.9 | 103 | 94 | – | – | – | – | – | – | – | –
2 | O=C(Nc1cnn(-c2csc(C(=O)NC3COC3)c2)c1)Nc1ccccc1Cl [Compound 17, 4-(4-(3-(2-chlorophenyl)ureido)-1H-pyrazol-1-yl)-N-(oxetan-3-yl)thiophene-2-carboxamide] | 98.8 | 107 | 130 | 87.5 | 107 | 61.2 | 98.2 | 95.6 | – | – | – | – | – | – | – | –
3 | Cc1sc(C(=O)NC2COC2)cc1-n1cc(NC(=O)Nc2c(F)cccc2Cl)cn1 [Compound 27, 4-(4-(3-(2-chloro-6-fluorophenyl)ureido)-1H-pyrazol-1-yl)-5-methyl-N-(oxetan-3-yl)thiophene-2-carboxamide] | – | – | – | – | – | – | – | – | 120 | 116 | 121 | 64.5 | 99.2 | 129 | 96.8 | 114
